Assay results taken from ChEMBL document CHEMBL1201862, “PubChem BioAssay data set” (2004).
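How tested: cells in 96-well plates exposed to compound for 48 hours at five concentrations. At the GI50, growth is halved.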 The source made the active and inactive calls. No stated cut-off is given here; in the data, active = GI50 up to about 1.1 µM and inactive = higher.

Experiments:
Experiment in all cases: DTP human tumour cell line panel, 48 h
786-0 = system: 786-0
HCC 2998 = system: HCC 2998
HL-60 = system: HL-60
HOP-62 = system: HOP-62
HOP-92 = system: HOP-92
HT-29 = system: HT-29
KM12 = system: KM12
LOX IMVI = system: LOX IMVI
M14 = system: M14
NCI-H23 = system: NCI-H23
RPMI-8226 = system: RPMI-8226
SF-268 = system: SF-268
SF-539 = system: SF-539
SK-MEL-2 = system: SK-MEL-2
SK-MEL-5 = system: SK-MEL-5
SK-OV-3 = system: SK-OV-3
TK-10 = system: TK-10
UACC-257 = system: UACC-257

Measured: GI50

Oc1ccc2c(c1)OCC1(O)Cc3cc(O)c(O)cc3C21 (stereo unspecified)
inactive: 786-0 19.5 µM | HCC 2998 21.2 µM | HL-60 25.6 µM | HOP-62 > 58.1 µM | HOP-92 21.6 µM | HT-29 21.3 µM | KM12 32.7 µM | LOX IMVI 19.4 µM | M14 19.2 µM | NCI-H23 18.1 µM | RPMI-8226 26.5 µM | SF-268 27.1 µM | SF-539 17 µM | SK-MEL-2 27.1 µM | SK-MEL-5 17.7 µM | SK-OV-3 39.9 µM | TK-10 17.4 µM | UACC-257 19.9 µM

Cc1cc(C)c(-n2c(-c3ccccc3)cs/c2=N\N=C2C=C(C(C)(C)C)C(=O)C(C(C)(C)C)=C2)c(C)c1
inactive: 786-0 > 100 µM | HCC 2998 > 100 µM | HL-60 50.5 µM | HOP-62 > 100 µM | HOP-92 39 µM | HT-29 > 100 µM | KM12 > 100 µM | LOX IMVI 83.8 µM | M14 > 100 µM | NCI-H23 60.5 µM | RPMI-8226 > 100 µM | SF-268 > 100 µM | SF-539 > 100 µM | SK-MEL-2 > 100 µM | SK-MEL-5 94 µM | SK-OV-3 > 100 µM | TK-10 > 100 µM | UACC-257 > 100 µM

Nc1ccccc1C(=O)/C=C/c1c(O)ccc2ccccc12
inactive: 786-0 > 100 µM | HCC 2998 > 100 µM | HL-60 > 100 µM | HOP-62 > 100 µM | HOP-92 > 100 µM | HT-29 > 100 µM | KM12 > 100 µM | LOX IMVI 19.2 µM | M14 > 100 µM | NCI-H23 > 100 µM | RPMI-8226 > 100 µM | SF-268 > 100 µM | SF-539 > 100 µM | SK-MEL-2 > 100 µM | SK-MEL-5 > 100 µM | SK-OV-3 > 100 µM | TK-10 > 100 µM | UACC-257 > 100 µM

COc1ccc(C(=O)C(c2ccc(OCc3ccccc3)cc2)c2ccc(OCc3ccccc3)cc2)cc1
inactive: 786-0 > 100 µM | HCC 2998 > 100 µM | HL-60 > 100 µM | HOP-62 > 100 µM | HOP-92 > 100 µM | HT-29 > 100 µM | KM12 > 100 µM | LOX IMVI > 100 µM | M14 > 100 µM | NCI-H23 > 100 µM | RPMI-8226 > 100 µM | SF-268 > 100 µM | SF-539 > 100 µM | SK-MEL-2 > 100 µM | SK-MEL-5 > 100 µM | SK-OV-3 > 100 µM | TK-10 > 100 µM

COC(=O)C1C=CCON2CCc3c(n(S(=O)(=O)c4ccccc4)c4ccccc34)C12 (stereo unspecified)
inactive: 786-0 > 87.1 µM | HCC 2998 51.5 µM | HL-60 27 µM | HOP-62 > 39.2 µM | HOP-92 > 80.7 µM | HT-29 43.4 µM | KM12 35.2 µM | LOX IMVI 33.3 µM | M14 44.5 µM | NCI-H23 > 90.4 µM | RPMI-8226 14.5 µM | SF-268 > 100 µM | SF-539 > 12.8 µM | SK-MEL-2 > 100 µM | SK-MEL-5 34.4 µM | SK-OV-3 > 61.9 µM | TK-10 > 78.3 µM | UACC-257 50.1 µM

CC[C@H]1CC(=O)c2c(cc3c(c2O)C(=O)c2ccccc2C3=O)[C@@]1(C#N)C(=O)OC(C)(C)C
inactive: 786-0 4.15 µM | HCC 2998 5.47 µM | HOP-62 1.77 µM | HOP-92 9.31 µM | HT-29 3.37 µM | KM12 2.62 µM | LOX IMVI 3.54 µM | M14 3.65 µM | NCI-H23 3.24 µM | RPMI-8226 3.33 µM | SF-268 5.36 µM | SF-539 4.13 µM | SK-MEL-2 2.17 µM | SK-MEL-5 1.9 µM | SK-OV-3 3.65 µM | TK-10 4.78 µM | UACC-257 2.07 µM

COc1cc2c(c(O)c1O)-c1ccc(OC)c(=O)cc1C(NC(C)=O)CC2 (stereo unspecified)
inactive: 786-0 16.6 µM | HCC 2998 8.05 µM | HL-60 2.21 µM | HOP-62 20.5 µM | HOP-92 4.59 µM | HT-29 3.91 µM | KM12 3.13 µM | LOX IMVI 6.82 µM | M14 7.41 µM | NCI-H23 5.06 µM | RPMI-8226 3.86 µM | SF-268 5.75 µM | SF-539 3.2 µM | SK-MEL-2 3.13 µM | SK-MEL-5 3.58 µM | SK-OV-3 15 µM | TK-10 64.3 µM | UACC-257 30.1 µM

CCOC(=O)C12CCCC1(O)N(NC(N)=O)C(C)=C2C(=O)OC (stereo unspecified)
inactive: 786-0 > 100 µM | HCC 2998 > 100 µM | HL-60 > 100 µM | HOP-62 > 100 µM | HOP-92 > 100 µM | HT-29 > 100 µM | KM12 > 100 µM | LOX IMVI > 100 µM | M14 > 100 µM | NCI-H23 > 100 µM | RPMI-8226 > 100 µM | SF-268 > 100 µM | SF-539 > 100 µM | SK-MEL-2 > 100 µM | SK-OV-3 > 100 µM | TK-10 > 100 µM | UACC-257 > 100 µM

COC1=CC(=O)C2(C=C1OC)OC[C@H]1Oc3c(ccc4c3C=CC(C)(C)O4)C(=O)[C@H]12 (stereo partly specified)
inactive: 786-0 68.1 µM | HCC 2998 86.5 µM | HL-60 15.6 µM | HOP-62 92.7 µM | HOP-92 7.64 µM | HT-29 49.2 µM | KM12 40.3 µM | LOX IMVI 78.9 µM | M14 41.7 µM | NCI-H23 23.7 µM | RPMI-8226 22.6 µM | SF-539 34.5 µM | SK-MEL-2 45.2 µM | SK-OV-3 70.1 µM | TK-10 79.3 µM | UACC-257 37.8 µM

CCn1c(C)nc([N+](=O)[O-])c1Sc1ncc[nH]1
inactive: 786-0 > 100 µM | HCC 2998 > 100 µM | HOP-62 > 100 µM | HOP-92 25.8 µM | HT-29 78.7 µM | KM12 > 100 µM | LOX IMVI 14.7 µM | M14 32.4 µM | NCI-H23 29.9 µM | RPMI-8226 21.1 µM | SF-268 69.7 µM | SF-539 52.6 µM | SK-MEL-2 25.4 µM | SK-MEL-5 48.4 µM | SK-OV-3 > 100 µM | TK-10 > 100 µM | UACC-257 39.4 µM

COC(=O)c1cc2c(=O)n(C)c3ccccc3n2c1C(=O)OC
inactive: 786-0 22.8 µM | HCC 2998 33.5 µM | HOP-62 16.9 µM | HOP-92 33 µM | HT-29 67.5 µM | KM12 63.1 µM | LOX IMVI 45.2 µM | M14 47.9 µM | NCI-H23 40.7 µM | RPMI-8226 71.9 µM | SF-268 30.3 µM | SF-539 26.1 µM | SK-MEL-2 > 100 µM | SK-MEL-5 > 100 µM | SK-OV-3 28.1 µM | TK-10 25.6 µM | UACC-257 > 100 µM
